According to patent publication US20240342168A1, “SMALL MOLECULE INHIBITORS FOR ANTI-CANCER COMBINATION THERAPY” (UNIVERSITY OF CAPE TOWN, priority 2021, published 2024):

Key:
Type in all cases: cell-based
HeLa cells [1] = test: Caspase-3/7 assay (Caspase-Glo 3/7); details: INI-43 pre-treatment plus cisplatin, 48 h
Protocol: (§1) Cells were subjected to single or CT for 48 h, and caspase-3/7 activity monitored using the Promega Caspase-Glo^R 3/7 assay, according to the manufacturer's instructions. Luminescence was measured using the Veritas™ microplate luminometer (Promega) and results standardized to viable cells in each treatment as determined by MTT assays performed in parallel.

SiHa cells [2] = test: Caspase-3/7 assay (Caspase-Glo 3/7); details: INI-43 pre-treatment plus cisplatin, 48 h
Protocol: as §1

HeLa cells [3] = test: PARP cleavage by Western blot
Protocol: (§2) For protein extraction, cells were washed with PBS and lysed using RIPA buffer (50 mM Tris-CI, pH 7.4, 150 mM NaCl, 1% (w/v) sodium deoxycholate, 0.1% (v/v) SDS, 1% (v/v) Triton X-100, 2 mM EGTA, 2 mM EDTA, 50 mM NaF, 5 mM Na2P2O7, 1× complete protease inhibitor cocktail (Roche) and 0.1 M Sodium Orthovanadate). For PARP cleavage analysis, dead cells were collected by centrifugation and combined with live cell lysates. Lysates were sonicated, centrifuged, and the supernatant quantified using the BCA Protein Assay Kit (Pierce, Thermo Scientific) according to the manufacturer's instructions. Proteins were subjected to Western blot analysis using the following antibodies: rabbit anti-Kpnβ1 (H-300, sc-11,367, Santa Cruz), rabbit anti-β-tubulin (H-235, sc-9104, Santa Cruz), rabbit anti-PARP1/2 antibody (H-250, sc-7150, Santa Cruz), mouse anti-GAPDH (0411, sc-47,724, Santa Cruz), rabbit anti-p21 (H-164, sc-756, Santa Cruz), rabbit anti-Mcl-1 (H-260, sc-20,679, Santa Cruz), mouse anti-cyclin D1 (HD11, sc-246, Santa Cruz), rabbit anti-c-Myc (N-262, sc-764, Santa Cruz), mouse anti-p53 (DO-7, M7001, DakoCytomation), mouse anti-XIAP (610,763, BD Biosciences), and rabbit anti-phospho-Histone H2AX (γH2AX, Ser139, 20E3, #9718, Cell Signal).

SiHa cells [4] = test: PARP cleavage by Western blot
Protocol: as §2

HeLa = test: Combination index (CI) determination, Chou-Talalay method; details: HeLa cervical cancer cell line
Protocol: (§3) To elucidate the nature of the combined use of INI-43 and cisplatin, the Chou-Talalay method was adopted (Chou T C, Talalay P. Quantitative analysis of dose-effect relationships: the combined effects of multiple drugs or enzyme inhibitors. Adv Enzym Regul. 1984; 22:27-55). Cell viability was determined after 48-h treatment at fixed INI-43 to cisplatin ratios of 1:3, 1:4 and 1:5 (Table 1 below). Cell viability was converted to fraction affected (Fa) and CI calculated using CompuSyn software (ComboSyn, Inc.).

Kyse 30 = test: as above; details: Kyse 30 oesophageal cancer cell line
Protocol: as §3

Mel 80 = test: as above; details: Mel 80 cervical cancer cell line
Protocol: as §3

SiHa cells [5] = test: as above; details: INI-43 to cisplatin ratios 1:3, 1:4 and 1:5, at Fa>0.2, 2 h pre-incubation, 48 h
Protocol: as §3

WHC05 = test: as above; details: WHC05 oesophageal cancer cell line
Protocol: as §3

p53 in SiHa cells = test: p53 half-life determination (cycloheximide chase, Western blot); details: 5 μM INI-43 2 h vs DMSO, then 50 μg/mL CHX
Protocol: Cells were treated with 5 μM INI-43 or DMSO for 2 hours or transfected with 20 nM si-ctrl or si-Kpnβ1 for 48 h prior to p53 half-life determination. Cells were treated with 50 μg/mL cycloheximide (CHX), and protein harvested at 0, 15, 30, 45, 60 and 90 min after CHX treatment. p53 content was analysed by western blotting. Bands were quantified by densitometrical scanning using ImageJ, normalised to GAPDH and expressed as a value relative to p53 intensity at time 0. Relative band intensities were plotted in log scale against time of CHX treatment and a linear trendline drawn. The half-life was calculated using the formula T1/2 (minutes)=Log(2)/[slope].

[6] = tested on: NFκB-p50 and NFκB-p65 in SiHa cells; test: Immunofluorescence of NFκB nuclear localization
Protocol: SiHa cells were plated on glass coverslips and treated for 24 h before fixation with 4% paraformaldehyde. Cells were permeabilised using 0.5% Triton-X-100/PBS and blocked using 1% BSA/PBST with 0.3 M Glycine. Primary antibody incubations were performed in 1% BSA/PBST, followed by secondary antibody incubation (Cy3 conjugated goat anti-rabbit, Jackson ImmunoResearch). Cell nuclei were counterstained with 0.5 μg/mL DAPI, and images captured using the Zeiss inverted fluorescence microscope under 100× oil immersion.

[7] = tested on: NFκB-p50 and NFκB-p65 in SiHa cells; test: Nuclear/cytoplasmic fractionation and Western blot; details: INI-43-cisplatin CT vs cisplatin
Protocol: For protein extraction, cells were washed with PBS and lysed using RIPA buffer (50 mM Tris-CI, pH 7.4, 150 mM NaCl, 1% (w/v) sodium deoxycholate, 0.1% (v/v) SDS, 1% (v/v) Triton X-100, 2 mM EGTA, 2 mM EDTA, 50 mM NaF, 5 mM Na2P2O7, 1× complete protease inhibitor cocktail (Roche) and 0.1 M Sodium Orthovanadate). For PARP cleavage analysis, dead cells were collected by centrifugation and combined with live cell lysates. Lysates were sonicated, centrifuged, and the supernatant quantified using the BCA Protein Assay Kit (Pierce, Thermo Scientific) according to the manufacturer's instructions. […]
For nuclear/cytoplasmic protein extraction, cells were collected by trypsinization. […] The fractions were quantified using the BCA Protein Assay Kit (Pierce, Thermo Scientific) according to the manufacturer's instructions, followed by western blot analysis.

[8] = tested on: p53, p21 and Mcl-1 in SiHa cells; test: Western blot of p53 and p53 targets
Protocol: as §2

γH2AX = test: Western blot of phosphorylated Histone 2AX (DNA damage marker); details: INI-43-cisplatin CT, 24 h, concentration dependent
Protocol: as §2

[9] = INI-43 pre-treatment plus cisplatin

## CN(C)CCCn1c(N)c(-c2nc3ccccc3[nH]2)c2nc3ccccc3nc21 [INI-43]
HeLa cells [1]
  increase in caspase-3/7 activation, combination vs cisplatin only: 3.6 fold
SiHa cells [2]
  increase in caspase-3/7 activation, combination vs cisplatin only: 2.8 fold
HeLa cells [3]; 5 μM INI-43
  apoptosis (PARP cleavage), INI-43 on its own: negligible apoptosis
HeLa cells [3]; [9]
  PARP cleavage, combination treated vs cisplatin only: enhanced PARP cleavage
SiHa cells [4]; 5 μM INI-43
  apoptosis (PARP cleavage), INI-43 on its own: negligible apoptosis
SiHa cells [4]; [9]
  PARP cleavage, combination treated vs cisplatin only: enhanced PARP cleavage
HeLa
  nature of INI-43 and cisplatin combination (CI): synergism
Kyse 30
  nature of INI-43 and cisplatin combination (CI): synergism
Mel 80
  nature of INI-43 and cisplatin combination (CI): synergism
SiHa cells [5]
  combination index (CI) values: below 1
WHC05
  nature of INI-43 and cisplatin combination (CI): synergism
p53 in SiHa cells
  increase in p53 half-life: ~2.9 fold
[6]; INI-43-cisplatin CT vs cisplatin
  nuclear fluorescence relative to cytoplasmic fluorescence (Fc (Nu/Cy)): significantly reduced this effect
[6]; [9]
  cisplatin-induced nuclear translocation of NFκB-p50 and NFκB-p65: prevented this nuclear translocation
[7]
  levels of NFκB-p50 and NFκB-p65 in the nucleus: reduced this effect
[8]; 60 μM cisplatin
  Mcl-1 levels, INI-43 and cisplatin vs single cisplatin: reduced
[8]; 30 and 60 μM cisplatin
  p21 levels, INI-43 and cisplatin vs single cisplatin: elevated
[8]; SiHa, treatment with INI-43 and cisplatin
  p53 protein levels: increased
γH2AX
  γH2AX levels: increased
